Measured values taken from patent publication US7323598B2, “Preparation of xylylenediamine (XDA)” (BASF Aktiengesellschaft, priority 2003, dated 2008).

Test: Investigations of solubility of IPN in different solvents
Type: physicochemical
Conditions: for solubility of IPN in NMP: solvent NMP; for solubility of IPN in mesitylene: solvent mesitylene; for solubility of IPN in pseudocumene: solvent pseudocumene
Procedure: Investigations of Solubility of IPN in Different Solvents
At 60° C., the solubility of IPN in mesitylene or pseudocumene is in each case below 10% by weight.

Compound: N#Cc1cccc(C#N)c1 [IPN, 1,3-dicyanobenzene]
- solubility of IPN in NMP (60° C.): approx. 26 % by weight
- solubility of IPN in NMP (90° C.): approx. 41 % by weight
- solubility of IPN in mesitylene (60° C.): below 10 % by weight
- solubility of IPN in mesitylene (90° C.): 12 % by weight
- solubility of IPN in pseudocumene (60° C.): below 10 % by weight
- solubility of IPN in pseudocumene (90° C.): 20 % by weight
